Experiments:
[1] = target: GAL4 DBD-CfEcR(DEF)/VP16AD-MmRXRE (Choristoneura fumiferana, UniProt O77240); experiment: 13B3 Assay (CHO stable cell line, luciferase reporter); conditions: for Fold Induction, 13B3 Assay, 3.3 uM: 3.3 uM ligand; for Fold Induction, 13B3 Assay, 3.3 uM / Fold Induction, 13B3 Assay, 33 uM: RLU ligand treated / RLU DMSO treated cells; for Fold Induction, 13B3 Assay, 3.3 uM / Fold Induction, 13B3 Assay, 33 uM / EC50: average of two wells; for Fold Induction, 13B3 Assay, 33 uM: 33 uM ligand; for 13B3 assay Rel Max FI: maximum fold induction at any concentration relative to that of GS-E ligand, CHO 13B3 cells; for EC50: read-out: 13B3 EC50, CHO 13B3 stable cell line, luciferase reporter, 48 h
Outline: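 CHO 13B3 clone stably expressing GAL4 DBD–CfEcR(DEF) and VP16AD–MmRXR(DE) with GAL4 RE–luciferase reporter; cells plated 24 h at 37 °C, then treated with ligands (DMSO stocks diluted 300-fold), 8 concentrations 33–0.01 μM.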

[2] = target: T1, Bombyx mori EcR (VP16 fusion, CVBE switch construct) (Bombyx mori, UniProt P49881); experiment: Z3 Assay (HEK-293 cells with CVBE and 6XEcRE LacZ, β-galactosidase reporter); conditions: for Fold Induction, Z3 Assay, 3.3 uM: 3.3 uM ligand; for Fold Induction, Z3 Assay, 3.3 uM / Fold Induction, Z3 Assay, 33 uM: ligand treated / DMSO treated cells; for Fold Induction, Z3 Assay, 3.3 uM / Fold Induction, Z3 Assay, 33 uM / EC50: average of two wells; for Fold Induction, Z3 Assay, 33 uM: 33 uM ligand; for Z3 assay Rel Max FI: maximum fold induction at any concentration relative to that of GS-E ligand; for Z3 assay Rel Max FI / EC50: HEK-293 Z3 cells; for EC50: read-out: Z3 assay EC50, β-galactosidase reporter
T1 sequence (P49881 86-606): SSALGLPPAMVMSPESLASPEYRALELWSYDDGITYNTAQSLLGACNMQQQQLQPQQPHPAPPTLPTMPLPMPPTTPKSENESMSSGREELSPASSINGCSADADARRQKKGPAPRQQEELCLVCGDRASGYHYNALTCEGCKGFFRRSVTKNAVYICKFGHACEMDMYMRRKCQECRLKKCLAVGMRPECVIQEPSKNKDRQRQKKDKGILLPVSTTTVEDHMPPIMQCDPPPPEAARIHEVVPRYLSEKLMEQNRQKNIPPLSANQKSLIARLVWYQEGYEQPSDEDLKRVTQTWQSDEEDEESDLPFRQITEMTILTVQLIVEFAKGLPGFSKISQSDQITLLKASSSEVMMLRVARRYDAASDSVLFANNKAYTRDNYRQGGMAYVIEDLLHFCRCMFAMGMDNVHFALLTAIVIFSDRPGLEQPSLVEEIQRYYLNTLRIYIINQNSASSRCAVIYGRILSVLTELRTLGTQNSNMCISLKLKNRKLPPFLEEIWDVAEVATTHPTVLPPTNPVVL
T1 sequence (P19793 1-462 partner): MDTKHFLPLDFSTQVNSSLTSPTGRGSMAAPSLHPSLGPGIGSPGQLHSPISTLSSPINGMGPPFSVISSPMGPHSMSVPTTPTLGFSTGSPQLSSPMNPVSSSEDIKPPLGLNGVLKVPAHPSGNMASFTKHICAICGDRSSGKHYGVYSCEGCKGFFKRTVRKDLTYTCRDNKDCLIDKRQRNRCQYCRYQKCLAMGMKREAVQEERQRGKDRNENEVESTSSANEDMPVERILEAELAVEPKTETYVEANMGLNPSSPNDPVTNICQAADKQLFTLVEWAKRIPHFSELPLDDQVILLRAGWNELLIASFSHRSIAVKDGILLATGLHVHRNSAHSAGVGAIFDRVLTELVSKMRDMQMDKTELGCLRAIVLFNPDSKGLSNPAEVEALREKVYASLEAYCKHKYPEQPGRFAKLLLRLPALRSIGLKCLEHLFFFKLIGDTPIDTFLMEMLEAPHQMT

SMILES: Cc1cc(C)cc(C(=O)N(NC(=O)c2ccc3c(c2)OC(C)O3)C(C)(C)C)c1 (stereo not shown) [RG-101511]
- Fold Induction, 13B3 Assay, 3.3 uM [1]: 1912
- Fold Induction, 13B3 Assay, 33 uM [1]: 744
- 13B3 assay Rel Max FI [1]: 0.811
- EC50 [1]: 794 nM
- Fold Induction, Z3 Assay, 3.3 uM [2]: 947
- Fold Induction, Z3 Assay, 33 uM [2]: 487
- Z3 assay Rel Max FI [2]: 1.122
- EC50 [2]: 468 nM

SMILES: COc1cc(C(=O)NN(C(=O)c2cc(C)cc(C)c2)C(C)(C)C)ccc1C [RG-101585]
- Fold Induction, 13B3 Assay, 33 uM [1]: 1015
- Fold Induction, Z3 Assay, 33 uM [2]: 330
- EC50 [2]: 4900 nM

SMILES: CCc1c(C(=O)NN(C(=O)c2cc(C)cc(C)c2)C(C)(C)C)ccc2c1OC(C)O2 (stereo not shown) [RG-101659]
- Fold Induction, 13B3 Assay, 3.3 uM [1]: 1556
- Fold Induction, 13B3 Assay, 33 uM [1]: 1185
- 13B3 assay Rel Max FI [1]: 0.867
- EC50 [1]: 562 nM
- Fold Induction, Z3 Assay, 3.3 uM [2]: 954
- Fold Induction, Z3 Assay, 33 uM [2]: 876
- EC50 [2]: 214 nM

SMILES: CCc1cccc(C(=O)NN(C(=O)c2cc(C)cc(C)c2)C(C)(C)C)c1C [RG-101691]
- Fold Induction, 13B3 Assay, 3.3 uM [1]: 5245
- Fold Induction, 13B3 Assay, 33 uM [1]: 630
- 13B3 assay Rel Max FI [1]: 0.918
- EC50 [1]: 406 nM
- Fold Induction, Z3 Assay, 3.3 uM [2]: 654
- Fold Induction, Z3 Assay, 33 uM [2]: 1089
- Z3 assay Rel Max FI [2]: 1.068
- EC50 [2]: 174 nM

SMILES: Cc1cc(C)cc(C(=O)N(NC(=O)c2cccc(OC(F)(F)F)c2C)C(C)(C)C)c1 [RG-101692]
- Fold Induction, 13B3 Assay, 3.3 uM [1]: 4180
- Fold Induction, 13B3 Assay, 33 uM [1]: 170
- 13B3 assay Rel Max FI [1]: 1.004
- EC50 [1]: 728 nM
- Fold Induction, Z3 Assay, 3.3 uM [2]: 435
- Fold Induction, Z3 Assay, 33 uM [2]: 860
- Z3 assay Rel Max FI [2]: 0.975
- EC50 [2]: 309 nM

SMILES: CCc1ccc(C(=O)NN(C(=O)c2cc(C)cc(Cl)c2)C(C)(C)C)cc1 [RG-101774]
- Fold Induction, 13B3 Assay, 3.3 uM [1]: 987
- Fold Induction, 13B3 Assay, 33 uM [1]: 526
- 13B3 assay Rel Max FI [1]: 0.657
- EC50 [1]: 327 nM
- Fold Induction, Z3 Assay, 3.3 uM [2]: 631
- Fold Induction, Z3 Assay, 33 uM [2]: 429
- Z3 assay Rel Max FI [2]: 0.943
- EC50 [2]: 155 nM

SMILES: CCc1ccc(C(=O)NN(C(=O)c2cc(C)c(C)c(Cl)c2)C(C)(C)C)cc1 [RG-101863]
- Fold Induction, 13B3 Assay, 3.3 uM [1]: 3187
- Fold Induction, 13B3 Assay, 33 uM [1]: 207
- 13B3 assay Rel Max FI [1]: 0.837
- EC50 [1]: 728 nM
- Fold Induction, Z3 Assay, 3.3 uM [2]: 832
- Fold Induction, Z3 Assay, 33 uM [2]: 374
- Z3 assay Rel Max FI [2]: 0.953
- EC50 [2]: 257 nM

SMILES: CCc1ccc(C(=O)NN(C(=O)c2cc(C)cc(C)c2)C(C)(C)C)cc1Cl [RG-101864]
- Fold Induction, 13B3 Assay, 3.3 uM [1]: 5959
- Fold Induction, 13B3 Assay, 33 uM [1]: 349
- 13B3 assay Rel Max FI [1]: 0.460
- EC50 [1]: 288 nM
- Fold Induction, Z3 Assay, 3.3 uM [2]: 796
- Fold Induction, Z3 Assay, 33 uM [2]: 494
- Z3 assay Rel Max FI [2]: 1.075
- EC50 [2]: 245 nM

SMILES: Cc1cc(C)cc(C(=O)N(NC(=O)c2ccc3c(c2)CCCC3)C(C)(C)C)c1 [RG-101887]
- Fold Induction, 13B3 Assay, 3.3 uM [1]: 2462
- Fold Induction, 13B3 Assay, 33 uM [1]: 542
- 13B3 assay Rel Max FI [1]: 0.579
- EC50 [1]: 861 nM
- Fold Induction, Z3 Assay, 3.3 uM [2]: 1004
- Fold Induction, Z3 Assay, 33 uM [2]: 334
- Z3 assay Rel Max FI [2]: 0.930
- EC50 [2]: 257 nM

SMILES: C=Cc1c(OC)cccc1C(=O)NN(C(=O)c1cc(C)cc(C)c1)C(C)(C)C [RG-102021]
- Fold Induction, 13B3 Assay, 3.3 uM [1]: 4081
- 13B3 assay Rel Max FI [1]: 1.136
- EC50 [1]: 4040 nM
- Fold Induction, Z3 Assay, 3.3 uM [2]: 417
- Z3 assay Rel Max FI [2]: 0.920
- EC50 [2]: 513 nM

SMILES: CCc1ccc(C(=O)NN(C(=O)c2ccccc2CC)C(C)(C)C)cc1 [RG-102592]
- Fold Induction, 13B3 Assay, 3.3 uM [1]: 194
- Fold Induction, 13B3 Assay, 33 uM [1]: 909
- 13B3 assay Rel Max FI [1]: 0.684
- EC50 [1]: 4920 nM
- Fold Induction, Z3 Assay, 3.3 uM [2]: 746
- Fold Induction, Z3 Assay, 33 uM [2]: 574
- Z3 assay Rel Max FI [2]: 0.699
- EC50 [2]: 3890 nM

SMILES: CCc1ccc(C(=O)NN(C(=O)c2cc(C)cc(C)c2)C(C)C(C)(C)C)cc1 (stereo not shown) [RG-103451]
- Fold Induction, 13B3 Assay, 3.3 uM [1]: 576
- Fold Induction, 13B3 Assay, 33 uM [1]: 661
- 13B3 assay Rel Max FI [1]: 0.742
- EC50 [1]: 208 nM
- Fold Induction, Z3 Assay, 3.3 uM [2]: 67
- Fold Induction, Z3 Assay, 33 uM [2]: 118
- Z3 assay Rel Max FI [2]: 1.054
- EC50 [2]: 83 nM

SMILES: COCc1c(OC)cccc1C(=O)NN(C(=O)c1cc(C)cc(C)c1)C(C)(C)C [RG-115117]
- Fold Induction, 13B3 Assay, 3.3 uM [1]: 1
- 13B3 assay Rel Max FI [1]: 0
- EC50 [1]: > 50000 nM
- Fold Induction, Z3 Assay, 3.3 uM [2]: 7
- Z3 assay Rel Max FI [2]: 0.36
- EC50 [2]: 3930 nM
